Test results taken from ChEMBL document CHEMBL4828765, “Design and Development of a Chemical Probe for Pseudokinase Ca2+/calmodulin-Dependent Ser/Thr Kinase” (J Med Chem, 2021).
Calls of active or inactive are those of the source. The rule behind the calls is not given here.

How the values were obtained:
[1] = molecular target: T1, Casein kinase I isoform epsilon (Homo sapiens, UniProt P49674); assay: Inhibition of tracer K5 binding to NanoLuc-fused CSNK1E (unknown origin) expressed in HEK293T cells measured after 2 hrs by NanoBRET assay; type: cell-based
Target sequence in this assay (P49674 whole entry, the tested form may be a part, canonical isoform): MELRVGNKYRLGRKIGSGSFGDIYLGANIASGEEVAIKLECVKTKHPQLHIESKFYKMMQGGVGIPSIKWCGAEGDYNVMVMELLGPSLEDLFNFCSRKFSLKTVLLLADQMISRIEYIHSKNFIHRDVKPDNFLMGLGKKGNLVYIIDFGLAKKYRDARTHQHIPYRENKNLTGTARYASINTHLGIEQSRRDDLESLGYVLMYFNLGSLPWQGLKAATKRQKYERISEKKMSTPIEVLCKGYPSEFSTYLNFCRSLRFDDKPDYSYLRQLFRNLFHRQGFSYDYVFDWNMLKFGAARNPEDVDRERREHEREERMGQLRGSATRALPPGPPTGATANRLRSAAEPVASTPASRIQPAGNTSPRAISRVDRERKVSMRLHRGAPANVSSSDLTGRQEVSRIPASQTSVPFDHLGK

[2] = molecular target: T2, Tyrosine-protein kinase ABL1 (Homo sapiens, UniProt P00519); assay: Inhibition of tracer K5 binding to NanoLuc-fused ABL1 (unknown origin) expressed in HEK293T cells measured after 2 hrs by NanoBRET assay; type: cell-based
T2 sequence (P00519 whole entry, the tested form may be a part): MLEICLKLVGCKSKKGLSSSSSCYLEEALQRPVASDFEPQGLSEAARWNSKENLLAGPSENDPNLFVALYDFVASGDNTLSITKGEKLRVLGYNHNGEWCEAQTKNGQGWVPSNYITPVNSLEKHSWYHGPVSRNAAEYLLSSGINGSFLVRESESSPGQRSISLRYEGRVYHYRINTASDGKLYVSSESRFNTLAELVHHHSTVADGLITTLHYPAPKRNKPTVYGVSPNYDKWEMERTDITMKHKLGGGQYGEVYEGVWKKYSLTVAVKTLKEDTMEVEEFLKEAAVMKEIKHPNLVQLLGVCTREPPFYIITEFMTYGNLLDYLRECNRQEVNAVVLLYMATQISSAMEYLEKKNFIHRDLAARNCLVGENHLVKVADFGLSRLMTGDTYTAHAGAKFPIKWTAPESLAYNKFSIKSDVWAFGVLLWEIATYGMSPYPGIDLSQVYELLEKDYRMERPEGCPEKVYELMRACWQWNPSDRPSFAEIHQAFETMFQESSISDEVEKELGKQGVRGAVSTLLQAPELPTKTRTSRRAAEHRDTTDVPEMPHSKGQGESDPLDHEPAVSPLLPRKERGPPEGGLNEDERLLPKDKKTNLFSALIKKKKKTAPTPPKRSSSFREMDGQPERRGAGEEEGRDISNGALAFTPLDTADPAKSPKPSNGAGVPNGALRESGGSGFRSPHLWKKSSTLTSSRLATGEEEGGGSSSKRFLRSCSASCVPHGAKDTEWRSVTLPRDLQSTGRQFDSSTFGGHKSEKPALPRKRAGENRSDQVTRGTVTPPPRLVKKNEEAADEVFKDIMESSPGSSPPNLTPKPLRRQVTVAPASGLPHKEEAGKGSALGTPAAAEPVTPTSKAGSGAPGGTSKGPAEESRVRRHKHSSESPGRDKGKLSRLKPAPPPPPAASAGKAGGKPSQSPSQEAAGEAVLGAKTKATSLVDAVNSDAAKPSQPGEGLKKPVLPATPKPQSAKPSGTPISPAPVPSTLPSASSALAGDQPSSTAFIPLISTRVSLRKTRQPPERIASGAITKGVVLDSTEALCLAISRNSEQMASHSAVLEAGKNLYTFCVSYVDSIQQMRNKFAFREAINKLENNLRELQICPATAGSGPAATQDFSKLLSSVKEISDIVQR

[3] = species: Homo sapiens; assay: Binding affinity to MERTK-AXL mutant (unknown origin) expressed in Escherichia coli Rosetta cells assessed as change in melting temperature by SYPRO orange dye based DSF assay
[4] = molecular target: T3, Tyrosine-protein kinase receptor UFO (Homo sapiens, UniProt P30530); assay: Inhibition of tracer K5 binding to NanoLuc-fused AXL (unknown origin) expressed in HEK293T cells measured after 2 hrs by NanoBRET assay; type: cell-based
T3 sequence (P30530 whole entry): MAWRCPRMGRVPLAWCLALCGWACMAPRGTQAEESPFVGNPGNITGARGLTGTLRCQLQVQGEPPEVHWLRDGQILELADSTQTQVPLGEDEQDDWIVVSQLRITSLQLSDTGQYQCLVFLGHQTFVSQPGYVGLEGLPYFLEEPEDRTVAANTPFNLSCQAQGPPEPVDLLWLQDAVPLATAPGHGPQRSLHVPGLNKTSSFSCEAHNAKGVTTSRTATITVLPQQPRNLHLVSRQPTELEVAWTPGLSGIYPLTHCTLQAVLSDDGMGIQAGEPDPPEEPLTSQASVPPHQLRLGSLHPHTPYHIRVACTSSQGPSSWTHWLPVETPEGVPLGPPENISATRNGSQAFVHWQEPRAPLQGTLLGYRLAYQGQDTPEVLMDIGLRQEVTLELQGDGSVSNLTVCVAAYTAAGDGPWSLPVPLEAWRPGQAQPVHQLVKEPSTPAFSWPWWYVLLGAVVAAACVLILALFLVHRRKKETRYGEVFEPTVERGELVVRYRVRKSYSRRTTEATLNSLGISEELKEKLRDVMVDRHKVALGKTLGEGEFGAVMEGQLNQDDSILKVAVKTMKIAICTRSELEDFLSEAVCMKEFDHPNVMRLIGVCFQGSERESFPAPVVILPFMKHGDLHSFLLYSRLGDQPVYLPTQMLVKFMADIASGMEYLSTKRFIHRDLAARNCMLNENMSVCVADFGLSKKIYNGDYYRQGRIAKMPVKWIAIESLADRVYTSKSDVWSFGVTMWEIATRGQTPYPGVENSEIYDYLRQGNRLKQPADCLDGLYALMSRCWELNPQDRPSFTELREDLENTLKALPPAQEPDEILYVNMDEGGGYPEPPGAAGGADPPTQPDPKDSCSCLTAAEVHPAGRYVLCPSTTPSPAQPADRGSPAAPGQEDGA

[5] = molecular target: T4, Tyrosine-protein kinase Mer (Homo sapiens, UniProt Q12866); assay: Inhibition of tracer K5 binding to NanoLuc-fused MERTK (unknown origin) expressed in HEK293T cells measured after 2 hrs by NanoBRET assay; type: cell-based
T4 sequence (Q12866 whole entry): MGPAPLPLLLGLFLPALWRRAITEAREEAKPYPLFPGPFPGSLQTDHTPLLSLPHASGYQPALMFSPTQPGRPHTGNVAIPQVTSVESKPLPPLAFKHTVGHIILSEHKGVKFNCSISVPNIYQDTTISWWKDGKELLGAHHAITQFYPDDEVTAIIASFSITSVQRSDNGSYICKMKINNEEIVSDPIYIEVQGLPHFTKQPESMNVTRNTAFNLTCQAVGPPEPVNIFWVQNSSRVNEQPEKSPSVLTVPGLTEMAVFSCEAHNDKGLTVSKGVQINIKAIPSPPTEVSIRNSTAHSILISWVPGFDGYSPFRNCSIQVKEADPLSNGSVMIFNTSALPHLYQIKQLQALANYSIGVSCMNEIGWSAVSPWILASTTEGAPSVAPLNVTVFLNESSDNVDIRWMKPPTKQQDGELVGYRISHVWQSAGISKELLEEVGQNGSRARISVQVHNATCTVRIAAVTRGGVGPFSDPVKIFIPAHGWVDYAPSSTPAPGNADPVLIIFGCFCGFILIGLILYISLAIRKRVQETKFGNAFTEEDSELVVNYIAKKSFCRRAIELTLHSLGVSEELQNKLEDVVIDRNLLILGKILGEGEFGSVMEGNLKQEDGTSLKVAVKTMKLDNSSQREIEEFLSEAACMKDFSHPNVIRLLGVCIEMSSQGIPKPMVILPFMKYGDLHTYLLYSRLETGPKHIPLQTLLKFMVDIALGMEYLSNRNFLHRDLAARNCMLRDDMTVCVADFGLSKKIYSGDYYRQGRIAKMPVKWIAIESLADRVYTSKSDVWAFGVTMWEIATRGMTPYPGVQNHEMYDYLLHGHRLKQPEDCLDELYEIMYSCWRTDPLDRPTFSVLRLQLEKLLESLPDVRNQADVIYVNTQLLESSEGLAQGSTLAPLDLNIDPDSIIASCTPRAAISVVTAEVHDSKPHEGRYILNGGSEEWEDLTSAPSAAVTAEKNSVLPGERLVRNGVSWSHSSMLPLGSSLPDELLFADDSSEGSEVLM

[6] = molecular target: T5, Tyrosine-protein kinase receptor TYRO3 (Homo sapiens, UniProt Q06418); assay: Inhibition of tracer K5 binding to NanoLuc-fused TYRO3 (unknown origin) expressed in HEK293T cells measured after 2 hrs by NanoBRET assay; type: cell-based
T5 sequence (Q06418 whole entry): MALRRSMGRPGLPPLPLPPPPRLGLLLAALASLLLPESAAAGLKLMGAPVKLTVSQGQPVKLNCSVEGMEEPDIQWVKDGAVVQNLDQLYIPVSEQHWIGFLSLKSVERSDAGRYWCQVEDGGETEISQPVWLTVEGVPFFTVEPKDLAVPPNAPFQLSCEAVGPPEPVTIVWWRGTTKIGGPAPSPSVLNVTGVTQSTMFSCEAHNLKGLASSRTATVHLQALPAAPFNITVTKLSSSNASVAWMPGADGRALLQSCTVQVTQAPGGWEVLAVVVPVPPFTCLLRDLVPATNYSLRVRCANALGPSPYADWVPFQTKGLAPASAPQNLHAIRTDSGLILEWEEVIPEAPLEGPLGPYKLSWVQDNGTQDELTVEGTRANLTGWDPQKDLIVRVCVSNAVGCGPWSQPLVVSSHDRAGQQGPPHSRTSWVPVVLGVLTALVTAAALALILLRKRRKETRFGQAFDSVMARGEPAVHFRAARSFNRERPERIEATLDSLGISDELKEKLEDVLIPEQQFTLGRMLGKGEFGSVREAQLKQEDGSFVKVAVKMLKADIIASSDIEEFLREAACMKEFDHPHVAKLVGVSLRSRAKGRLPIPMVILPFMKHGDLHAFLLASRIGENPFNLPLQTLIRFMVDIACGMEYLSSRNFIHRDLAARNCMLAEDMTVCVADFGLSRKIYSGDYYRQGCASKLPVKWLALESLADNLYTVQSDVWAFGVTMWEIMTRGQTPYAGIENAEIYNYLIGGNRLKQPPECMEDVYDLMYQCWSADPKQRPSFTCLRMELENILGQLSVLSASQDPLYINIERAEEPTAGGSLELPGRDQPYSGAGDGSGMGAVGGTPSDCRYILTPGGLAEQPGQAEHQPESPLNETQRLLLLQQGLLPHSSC

[7] = molecular target: T6, Tyrosine-protein kinase Mer (Homo sapiens) (UniProt Q12866); assay: Binding affinity to MERTK (571 to 864 residue) (unknown origin) expressed in Escherichia coli Rosetta cells assessed as change in melting temperature by SYPRO orange dye based DSF assay
T6 sequence (whole entry): T4 sequence (Q12866 whole entry)

[8] = molecular target: T2, Tyrosine-protein kinase ABL1
Description: Binding affinity to non-phosphorylated ABL1 (unknown origin) assessed as change in melting temperature by SYPRO orange dye based DSF assay

[9] = molecular target: T1, Casein kinase I isoform epsilon; assay: Binding affinity to CSNK1E (unknown origin) assessed as change in melting temperature by SYPRO orange dye based DSF assay
Target sequence in this assay (P49674 whole entry, looked up, the tested form may be a part, canonical isoform): as the sequence (P49674 whole entry, the tested form may be a part, canonical isoform) above

[10] = test system: P19; assay: Induction of cell death in mouse P19 cell differentiation model at 2 uM preincubated for 4 days followed by cytosine arabinoside addition measured after 6 hrs by immunostaining based microscopic analysis; type: functional; conditions: time 102.0 hrs
[11] = test system: P19; assay: Induction of beta3-tubulin abundance in mouse P19 cells at 1 uM preincubated for 4 days followed by cytosine arabinoside addition measured after 6 hrs by immunostaining based microscopic analysis; type: functional, cell-based; conditions: time 4.0 day
[12] = test system: P19; assay: Induction of cell death in mouse P19 cell differentiation model at 1 uM preincubated for 4 days followed by cytosine arabinoside addition measured after 6 hrs by immunostaining based microscopic analysis; type: functional; conditions: time 102.0 hrs
[13] = molecular target: T4, Tyrosine-protein kinase Mer; assay: Binding affinity to human MERTK by KINOMEscan scanMAX assay
[14] = molecular target: T1, Casein kinase I isoform epsilon; assay: Binding affinity to human CSNK1E at 1 uM by KINOMEscan scanMAX assay relative to control
Target sequence in this assay (P49674 whole entry, looked up, the tested form may be a part, canonical isoform): as the sequence (P49674 whole entry, the tested form may be a part, canonical isoform) above

[15] = molecular target: T2, Tyrosine-protein kinase ABL1; assay: Binding affinity to human non-phosphorylated ABL1 at 1 uM by KINOMEscan scanMAX assay relative to control
[16] = molecular target: Tyrosine-protein kinase receptor UFO (Homo sapiens) (UniProt P30530); assay: Binding affinity to AXL (unknown origin) assessed as change in melting temperature by SYPRO orange dye based DSF assay
[17] = molecular target: Tyrosine-protein kinase receptor UFO (Homo sapiens) (UniProt P30530); assay: Binding affinity to human AXL at 1 uM by KINOMEscan scanMAX assay relative to control
[18] = molecular target: T1, Casein kinase I isoform epsilon; assay: Binding affinity to human CSNK1E by KINOMEscan scanMAX assay
Target sequence in this assay (P49674 whole entry, the tested form may be a part, canonical isoform): as above

[19] = molecular target: T6, Tyrosine-protein kinase Mer (Homo sapiens); assay: Binding affinity to human MERTK at 1 uM by KINOMEscan scanMAX assay relative to control
[20] = molecular target: T2, Tyrosine-protein kinase ABL1; assay: Binding affinity to human non-phosphorylated ABL1 by KINOMEscan scanMAX assay
[21] = molecular target: Hepatocyte growth factor receptor (Homo sapiens) (UniProt P08581); assay: Binding affinity to human MET at 1 uM by KINOMEscan scanMAX assay relative to control
Chain of Hepatocyte growth factor receptor (Homo sapiens) (P08581 whole entry, the tested form may be a part): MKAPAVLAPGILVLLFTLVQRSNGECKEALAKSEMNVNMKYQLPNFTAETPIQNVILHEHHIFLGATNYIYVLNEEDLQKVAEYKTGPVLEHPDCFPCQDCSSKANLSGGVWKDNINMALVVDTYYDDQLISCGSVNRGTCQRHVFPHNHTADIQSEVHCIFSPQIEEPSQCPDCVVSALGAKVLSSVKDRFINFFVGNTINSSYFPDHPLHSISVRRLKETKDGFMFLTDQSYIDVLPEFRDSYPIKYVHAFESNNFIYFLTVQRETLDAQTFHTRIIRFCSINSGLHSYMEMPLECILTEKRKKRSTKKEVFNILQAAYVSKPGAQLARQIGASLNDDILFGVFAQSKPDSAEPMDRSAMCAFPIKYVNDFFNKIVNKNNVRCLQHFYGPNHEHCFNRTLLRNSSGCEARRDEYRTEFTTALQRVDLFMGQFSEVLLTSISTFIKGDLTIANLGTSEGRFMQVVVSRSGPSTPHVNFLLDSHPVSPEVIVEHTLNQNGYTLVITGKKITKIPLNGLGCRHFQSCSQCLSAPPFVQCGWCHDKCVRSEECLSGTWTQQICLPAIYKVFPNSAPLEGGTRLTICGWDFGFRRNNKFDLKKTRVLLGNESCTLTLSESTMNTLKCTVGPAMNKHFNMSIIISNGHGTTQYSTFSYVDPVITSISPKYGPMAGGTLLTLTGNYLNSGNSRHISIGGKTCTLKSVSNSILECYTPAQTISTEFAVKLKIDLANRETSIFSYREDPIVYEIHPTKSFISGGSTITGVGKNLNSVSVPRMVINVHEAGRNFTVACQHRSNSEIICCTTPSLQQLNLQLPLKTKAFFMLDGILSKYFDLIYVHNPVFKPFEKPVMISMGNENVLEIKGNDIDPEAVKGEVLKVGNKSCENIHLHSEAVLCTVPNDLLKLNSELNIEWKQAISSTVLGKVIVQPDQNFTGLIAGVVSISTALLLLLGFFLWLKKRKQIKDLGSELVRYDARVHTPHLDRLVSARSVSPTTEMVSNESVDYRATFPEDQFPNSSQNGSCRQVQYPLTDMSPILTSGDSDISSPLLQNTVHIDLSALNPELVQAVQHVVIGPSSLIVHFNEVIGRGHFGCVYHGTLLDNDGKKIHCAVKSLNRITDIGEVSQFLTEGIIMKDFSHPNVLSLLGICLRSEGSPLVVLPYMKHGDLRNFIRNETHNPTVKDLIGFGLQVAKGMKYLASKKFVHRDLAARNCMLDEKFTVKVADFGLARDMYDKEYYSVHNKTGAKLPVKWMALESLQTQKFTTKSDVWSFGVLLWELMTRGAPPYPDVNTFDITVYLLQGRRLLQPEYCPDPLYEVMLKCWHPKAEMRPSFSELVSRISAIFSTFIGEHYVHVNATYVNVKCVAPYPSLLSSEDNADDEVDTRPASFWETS

[22] = molecular target: T7, Ribosomal protein S6 kinase alpha-2 (Homo sapiens, UniProt Q15349); assay: Binding affinity to human N-terminal RSK3 kinase domain 1 at 1 uM by KINOMEscan scanMAX assay relative to control
T7 sequence (Q15349 whole entry, the tested form may be a part): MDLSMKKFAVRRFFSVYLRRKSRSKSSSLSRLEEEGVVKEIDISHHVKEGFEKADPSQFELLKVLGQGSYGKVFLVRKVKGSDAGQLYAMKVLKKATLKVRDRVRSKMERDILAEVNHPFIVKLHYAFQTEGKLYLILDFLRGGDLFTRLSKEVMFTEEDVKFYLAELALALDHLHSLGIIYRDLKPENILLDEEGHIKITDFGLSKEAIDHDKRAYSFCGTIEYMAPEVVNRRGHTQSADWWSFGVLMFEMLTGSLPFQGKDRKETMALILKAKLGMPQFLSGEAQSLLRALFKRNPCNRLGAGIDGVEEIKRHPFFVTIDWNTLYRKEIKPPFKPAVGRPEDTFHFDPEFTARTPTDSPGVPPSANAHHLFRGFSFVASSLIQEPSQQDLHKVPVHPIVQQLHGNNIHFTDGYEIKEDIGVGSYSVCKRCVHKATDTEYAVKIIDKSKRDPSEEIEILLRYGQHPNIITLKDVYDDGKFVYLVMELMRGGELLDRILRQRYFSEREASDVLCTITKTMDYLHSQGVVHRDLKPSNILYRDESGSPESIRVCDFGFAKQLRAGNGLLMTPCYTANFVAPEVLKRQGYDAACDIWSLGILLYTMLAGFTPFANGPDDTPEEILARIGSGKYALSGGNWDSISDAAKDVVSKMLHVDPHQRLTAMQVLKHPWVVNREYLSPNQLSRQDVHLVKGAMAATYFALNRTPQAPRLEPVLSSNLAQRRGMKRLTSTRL

[23] = molecular target: T8, Mitogen-activated protein kinase kinase kinase 2 (Homo sapiens) (UniProt Q9Y2U5); assay: Binding affinity to human MAP3K2 at 1 uM by KINOMEscan scanMAX assay relative to control
T8 sequence (whole entry): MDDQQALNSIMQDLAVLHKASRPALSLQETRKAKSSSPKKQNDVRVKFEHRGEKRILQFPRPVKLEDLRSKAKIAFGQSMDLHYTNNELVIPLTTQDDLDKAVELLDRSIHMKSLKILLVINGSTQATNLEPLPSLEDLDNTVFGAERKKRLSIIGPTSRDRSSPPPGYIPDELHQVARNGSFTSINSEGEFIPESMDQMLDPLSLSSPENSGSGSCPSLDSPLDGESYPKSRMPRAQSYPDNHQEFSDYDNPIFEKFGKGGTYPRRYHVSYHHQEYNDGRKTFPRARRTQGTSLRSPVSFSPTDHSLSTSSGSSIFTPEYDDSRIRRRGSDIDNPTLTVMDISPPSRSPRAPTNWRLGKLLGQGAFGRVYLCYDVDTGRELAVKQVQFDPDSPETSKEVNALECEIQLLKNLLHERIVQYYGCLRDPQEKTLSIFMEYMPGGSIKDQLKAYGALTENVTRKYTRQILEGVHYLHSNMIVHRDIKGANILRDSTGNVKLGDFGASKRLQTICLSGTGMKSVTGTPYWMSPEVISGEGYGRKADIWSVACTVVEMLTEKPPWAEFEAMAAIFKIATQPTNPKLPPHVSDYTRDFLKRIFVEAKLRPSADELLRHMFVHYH

[24] = molecular target: T7, Ribosomal protein S6 kinase alpha-2; assay: Binding affinity to human N-terminal RSK3 kinase domain 1 by KINOMEscan scanMAX assay
[25] = molecular target: T9, Mitogen-activated protein kinase kinase kinase 2 (Homo sapiens, UniProt Q9Y2U5); assay: Binding affinity to human MAP3K2 by KINOMEscan scanMAX assay
T9 sequence (Q9Y2U5 whole entry): T8 sequence (whole entry)

Compound: Cc1cc(Br)c(CNc2ncc(C(=O)NCCCN3CCOC3=O)c(NC3CCCCC3)n2)cc1Br
- IC50 [1]: 22.1 µM
- IC50 [2]: > 10 µM
- deltaTm [3]: 0.1 K
- IC50 [4]: > 10 µM
- IC50 [5]: > 10 µM
- IC50 [6]: 8.73 µM
- deltaTm [7]: -0.5 K
- deltaTm [8]: 8.4 K
- deltaTm [9]: 3.8 K

Compound: CCN(Cc1ccc(Cl)cc1)c1ncc(C(=O)NCCCN2CCCC2=O)c(NC2CCCC2)n1
- IC50 [2]: > 10 µM
- IC50 [4]: > 10 µM
- Activity [10]: inactive
- Activity [11]: inactive
- IC50 [5]: > 10 µM
- IC50 [6]: > 10 µM
- Activity [12]: inactive

Compound: O=C(NCCCN1CCOC1=O)c1cnc(NCc2cc(Cl)ccc2Cl)nc1NC1CCCC1
- Kd [13]: 0.57 µM
- Activity [14]: 76%
- Activity [15]: 73%
- deltaTm [16]: 0.2 K
- IC50 [2]: > 10 µM
- Activity [17]: 61%
- deltaTm [3]: 0.2 K
- Kd [18]: 0.77 µM
- Activity [19]: 75%
- Kd [20]: 0.74 µM
- Activity [21]: 63%
- Activity [22]: 67%
- IC50 [5]: > 10 µM
- IC50 [6]: 0.7 µM
- Ki [6]: 0.12 µM
- Activity [23]: 63%
- deltaTm [7]: -0.2 K
- Kd [24]: 1.3 µM
- Kd [25]: 0.69 µM
- deltaTm [8]: 8.6 K
- deltaTm [9]: 5.6 K
